{"source": "patent US20130012432A1", "about": "“Peptides for Treatment of Obesity” (Novo Nordisk A/S, priority 2010, published 2013)", "key": {"physchem": {"experiment": "physchem", "protocol": "From a stock solution in vehicle, either H2O or 10 mM phosphate, containing 1 mg (as weighed) compound per ml, 8-11 aliquots are withdrawn and pH-adjusted individually with HCl/NaOH, to cover the whole pH range."}, "MC1 receptor": {"biological_target": "MC1 receptor (Homo sapiens, UniProt Q01726)", "sequence (Q01726 whole entry)": "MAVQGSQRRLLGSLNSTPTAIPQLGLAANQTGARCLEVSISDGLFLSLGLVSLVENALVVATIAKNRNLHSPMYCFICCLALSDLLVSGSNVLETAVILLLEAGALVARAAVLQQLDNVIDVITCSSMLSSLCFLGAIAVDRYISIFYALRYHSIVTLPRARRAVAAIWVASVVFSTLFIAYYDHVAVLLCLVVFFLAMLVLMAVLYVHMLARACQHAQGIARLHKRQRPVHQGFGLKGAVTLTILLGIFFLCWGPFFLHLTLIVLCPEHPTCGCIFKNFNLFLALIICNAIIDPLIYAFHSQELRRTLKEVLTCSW", "experiment": "biochemical", "protocol": "Assay (IV)—Melanocortin Receptor 1 (MC1) Binding Assay\nThe MC1 receptor binding assay was performed on BHK cell membranes stably expressing the MC1 receptor. The assay was performed in a total volume of 250 μl: 25 μl of ^125NDP-α-MSH (22 pM in final concentration), 25 μl of test compound/control and 200 μl of cell membrane (25 μg/ml). Test compounds were dissolved in DMSO. Radioactively labeled ligand, membranes and test compounds were diluted in buffer: 25 mM HEPES, pH 7.4, 0.1 mM CaCl2, 1 mM MgSO4, 1 mM EDTA, 0.1% HSA and 0.005% Tween™ 20. Alternatively, HSA may be substituted with ovalbumin. The samples were incubated at 30° C. for 90 min. in Costar round-bottom microtiter plates. Incubation was terminated by filtration on a Packard harvester filtermate. Rapid filtration through Packard Unifilter-96 GF/B filters pre-treated with polyetylenimine (PerkinElmer 6005277). The filters were washed with ice-cold 0.9% NaCl 8-10 times. The plates were air-dried at app. 55° C. for 30 min, and 50 μl Microscint 0 (Packard, cat. No. 6013616) was added to each well. The plates were counted in a Topcounter (1 min/well).\nThe data were analysed by non-linear regression analysis of binding curves, using the Windows™ program GraphPad™ Prism (GraphPad Software, USA)."}}, "note": "Positions of bridges follow the written chain, without caps; N, C: chain ends. Non-standard residues stand in square brackets, D forms with d. Residues, ends and D or L forms follow the SMILES beside them. Groups on a side chain read outwards from the residue. *: point of attachment. Palmitoyl(16-(5-tetrazolyl)) = O=C(CCCCCCCCCCCCCCCc1nnn[nH]1)*; Lys(CH2CO2H)2 = N[C@@H](CCCCN(CC(=O)O)CC(=O)O)C(=O)O; X1 = O=C(O)CCCCCCCCCCCCCCCCC(=O)NCCOCCOCCN*; C14 diacid = O=C(O)CCCCCCCCCCCCC(=O)*; NTA = O=C(O)CN(CC(=O)O)CC(=O)*; hCys = N[C@@H](CCS)C(=O)O; Dab = NCC[C@H](N)C(=O)O; Dap = NC[C@H](N)C(=O)O; AEEA = NCCOCCOCC(=O)O", "data": [{"smiles": "CC(=O)N[C@H]1CCSSC[C@@H](C(=O)N2CCC[C@H]2C(=O)N2CCC[C@H]2C(=O)N[C@@H](CCCCN)C(=O)N[C@@H](CC(=O)O)C(=O)N[C@@H](CNC(=O)CN(CC(=O)O)CC(=O)O)C(=O)N[C@@H](CCCCNC(=O)COCCOCCNC(=O)CCCCCCCCCCCCCCCc2nnn[nH]2)C(N)=O)NC(=O)[C@H](Cc2c[nH]c3ccccc23)NC(=O)[C@H](CCCNC(=N)N)NC(=O)[C@@H](Cc2ccccc2)NC(=O)[C@H](Cc2c[nH]cn2)NC1=O", "note": "[Example 61, Ac-c[homoCys-His-D-Phe-Arg-Trp-Cys]-Pro-Pro-Lys-Asp-Dap(BCMA)-Lys[(2-{2-[16-(tetrazol-5-yl)hexadecanoylamino]ethoxy}ethoxy)acetyl]-NH2] (Ac-[hCys]H[dF]RWCPPKD[Dap](NTA)K([AEEA-Palmitoyl(16-(5-tetrazolyl))])-NH2; disulfide 1-6)", "values": [{"measurement": "solubility", "setting": "physchem; pH 3.3, Solubility Conc.", "result": 623, "unit": "µM"}, {"measurement": "solubility", "setting": "physchem; pH 4.4, Solubility Conc.", "result": 575, "unit": "µM"}, {"measurement": "solubility", "setting": "physchem; pH 4.8, Solubility Conc.", "result": 584, "unit": "µM"}, {"measurement": "solubility", "setting": "physchem; pH 5.3, Solubility Conc.", "result": 32, "unit": "µM"}, {"measurement": "solubility", "setting": "physchem; pH 6.3, Solubility Conc.", "result": 26, "unit": "µM"}, {"measurement": "solubility", "setting": "physchem; pH 6.8, Solubility Conc.", "result": 46, "unit": "µM"}, {"measurement": "solubility", "setting": "physchem; pH 7.1, Solubility Conc.", "result": 256, "unit": "µM"}, {"measurement": "solubility", "setting": "physchem; pH 7.3, Solubility Conc.", "result": 630, "unit": "µM"}, {"measurement": "solubility", "setting": "physchem; pH 7.4, Solubility Conc.", "result": 713, "unit": "µM"}, {"measurement": "solubility", "setting": "physchem; pH 7.7, Solubility Conc.", "result": 805, "unit": "µM"}]}, {"smiles": "CC(=O)N[C@H]1CCNC(=O)C[C@@H](C(=O)N2CCC[C@H]2C(=O)N[C@@H](CO)C(=O)N[C@@H](CO)C(=O)N[C@@H](CO)C(=O)N[C@@H](CCCCN(CC(=O)O)CC(=O)O)C(=O)N[C@@H](CO)C(=O)N[C@@H](CO)C(=O)NCCOCCOCCNC(=O)CCCCCCCCCCCCCCCCC(=O)O)NC(=O)[C@H](Cc2c[nH]c3ccccc23)NC(=O)[C@H](CCCNC(=N)N)NC(=O)[C@@H](Cc2ccccc2)NC(=O)[C@H](Cc2c[nH]cn2)NC1=O", "note": "[Example 3, Ac-c[Dab-His-D-Phe-Arg-Trp-Asp]-Pro-Ser-Ser-Ser-Lys(biscarboxymethyl)-Ser-Ser-NH(2-{2-[2-(17-carboxyheptadecanoylamino)ethoxy]ethoxy}ethyl)] (Ac-[Dab]H[dF]RWDPSSS[Lys(CH2CO2H)2]SS-X1; lactam 1-6)", "values": [{"measurement": "solubility", "setting": "physchem; pH 4.9, Solubility Conc., pH 4.9, vehicle 10 mM phosphate", "result": 24, "unit": "µM"}, {"measurement": "solubility", "setting": "physchem; pH 5.6, Solubility Conc., pH 5.6, vehicle 10 mM phosphate", "result": 32, "unit": "µM"}, {"measurement": "solubility", "setting": "physchem; pH 6.1, Solubility Conc., pH 6.1, vehicle 10 mM phosphate", "result": 54, "unit": "µM"}, {"measurement": "solubility", "setting": "physchem; pH 6.7, Solubility Conc., pH 6.7, vehicle 10 mM phosphate", "result": 154, "unit": "µM"}, {"measurement": "solubility", "setting": "physchem; pH 6.9, Solubility Conc., pH 6.9, vehicle 10 mM phosphate", "result": 295, "unit": "µM"}, {"measurement": "solubility", "setting": "physchem; pH 7.1, Solubility Conc., pH 7.1, vehicle 10 mM phosphate", "result": 396, "unit": "µM"}, {"measurement": "solubility", "setting": "physchem; pH 7.2, Solubility Conc., pH 7.2, vehicle 10 mM phosphate", "result": 401, "unit": "µM"}, {"measurement": "solubility", "setting": "physchem; pH 7.4, Solubility Conc., pH 7.4, vehicle 10 mM phosphate", "result": 396, "unit": "µM"}, {"measurement": "solubility", "setting": "physchem; pH 7.7, Solubility Conc., pH 7.7, vehicle 10 mM phosphate", "result": 345, "unit": "µM"}, {"measurement": "solubility", "setting": "physchem; pH 8.1, Solubility Conc., pH 8.1, vehicle 10 mM phosphate", "result": 360, "unit": "µM"}]}, {"smiles": "CC(=O)N[C@H]1CCSSC[C@@H](C(=O)N2CCC[C@H]2C(=O)N2CCC[C@H]2C(=O)N[C@@H](CCCCN)C(=O)N[C@@H](CC(=O)O)C(=O)N[C@@H](CNC(=O)CN(CC(=O)O)CC(=O)O)C(=O)N[C@@H](CCCCNC(=O)COCCOCCNC(=O)CCCCCCCCCCCCC(=O)O)C(N)=O)NC(=O)[C@H](Cc2c[nH]c3ccccc23)NC(=O)[C@H](CCCNC(=N)N)NC(=O)[C@@H](Cc2ccccc2)NC(=O)[C@H](Cc2c[nH]cn2)NC1=O", "note": "[Example 69, Ac-c[homoCys-His-D-Phe-Arg-Trp-Cys]-Pro-Pro-Lys-Asp-Dap(BCMA)-Lys({2-[2-(13-carboxytridecanoylamino)ethoxy]ethoxy}acetyl)-NH2] (Ac-[hCys]H[dF]RWCPPKD[Dap](NTA)K([AEEA-C14 diacid])-NH2; disulfide 1-6)", "values": [{"measurement": "Ki", "setting": "MC1 receptor", "result": "> 10", "unit": "µM"}]}, {"smiles": "CC(=O)N[C@H]1CCSSC[C@@H](C(=O)N2CCC[C@H]2C(=O)N2CCC[C@H]2C(=O)N[C@@H](CCCCN)C(=O)N[C@@H](CCC(=O)O)C(=O)N[C@@H](CCCCN(CC(=O)O)CC(=O)O)C(=O)N[C@@H](CCCCNC(=O)COCCOCCNC(=O)CCCCCCCCCCCCCCCc2nnn[nH]2)C(N)=O)NC(=O)[C@H](Cc2c[nH]c3ccccc23)NC(=O)[C@H](CCCNC(=N)N)NC(=O)[C@@H](Cc2ccccc2)NC(=O)[C@H](CO)NC1=O", "note": "[Example 58, Ac-c[homoCys-Ser-D-Phe-Arg-Trp-Cys]-Pro-Pro-Lys-Glu-Lys(biscarboxymethyl)-Lys[(2-{2-[16-(tetrazol-5-yl)hexadecanoylamino]ethoxy}ethoxy)acetyl]-NH2] (Ac-[hCys]S[dF]RWCPPKE[Lys(CH2CO2H)2]K([AEEA-Palmitoyl(16-(5-tetrazolyl))])-NH2; disulfide 1-6)", "values": [{"measurement": "solubility", "setting": "physchem; pH 3, Solubility Conc.", "result": 539, "unit": "µM"}, {"measurement": "solubility", "setting": "physchem; pH 3.9, Solubility Conc.", "result": 56, "unit": "µM"}, {"measurement": "solubility", "setting": "physchem; pH 5.9, Solubility Conc.", "result": 8, "unit": "µM"}, {"measurement": "solubility", "setting": "physchem; pH 6.2, Solubility Conc.", "result": 21, "unit": "µM"}, {"measurement": "solubility", "setting": "physchem; pH 6.5, Solubility Conc.", "result": 37, "unit": "µM"}, {"measurement": "solubility", "setting": "physchem; pH 6.6, Solubility Conc.", "result": 30, "unit": "µM"}, {"measurement": "solubility", "setting": "physchem; pH 7.5, Solubility Conc.", "result": 80, "unit": "µM"}, {"measurement": "solubility", "setting": "physchem; pH 7.6, Solubility Conc.", "result": 385, "unit": "µM"}, {"measurement": "solubility", "setting": "physchem; pH 8.6, Solubility Conc.", "result": 250, "unit": "µM"}, {"measurement": "solubility", "setting": "physchem; pH 9, Solubility Conc.", "result": 365, "unit": "µM"}]}]}
